This experiment has as its target T1, human APJ receptor (Homo sapiens, UniProt P35414).
T1 construct: expressed in transfected cells; host or cells: HEK293
T1 sequence (P35414 1-380): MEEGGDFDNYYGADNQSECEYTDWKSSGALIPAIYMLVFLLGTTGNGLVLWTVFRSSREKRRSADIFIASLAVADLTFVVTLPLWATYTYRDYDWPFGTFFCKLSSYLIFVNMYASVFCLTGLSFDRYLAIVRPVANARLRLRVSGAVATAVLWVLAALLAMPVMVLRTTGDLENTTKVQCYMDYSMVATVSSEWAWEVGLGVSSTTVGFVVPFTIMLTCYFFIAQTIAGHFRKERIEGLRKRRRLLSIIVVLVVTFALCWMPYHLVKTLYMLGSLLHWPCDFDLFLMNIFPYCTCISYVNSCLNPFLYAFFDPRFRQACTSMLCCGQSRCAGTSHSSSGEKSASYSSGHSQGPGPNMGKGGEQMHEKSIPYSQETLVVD
Put plainly: Intracellular cAMP accumulation assay (APJ hcAMP, HTRF). The experiment is classed as cell-based. The settings on record: HEK293 cells stably expressing human APJ receptor; inhibition of forskolin-mediated cAMP production; read-out: APJ cAMP Potency range. The method, boiled down: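 Inhibition of forskolin (2 μM)-driven cAMP, with […], measured by HTRF after 30 min room-temperature compound exposure of stably transfected HEK293 cells. cAMP read from a standard curve; variable-slope fit gives EC50, and maximal inhibition is normalised to (Pyr1)apelin-13 as 100%.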
(In general: Cyclic AMP is a second messenger, typically raised through Gs and lowered through Gi signalling.)
With `CCOCc1nc(O)c(Cc2ccc(-c3ncon3)cc2)c(=O)n1-c1c(OC)cccc1OC` [Example 32, 3-(2,6-dimethoxyphenyl)-2-(ethoxymethyl)-6-hydroxy-5-{[4-(1,2,4-oxadiazol-3-yl)phenyl]methyl}-3,4-dihydropyrimidin-4-one], the EC50 fell in the range of 10 to 100 nM.

For the compound `CC[C@@H](c1ccccc1)n1c(-c2nc(C)cs2)nc(=O)c(Cc2ccc(-c3ccc(F)cc3C(N)=O)c(F)c2)c1O` [Example 120, 2′,4-difluoro-4′-{[6-hydroxy-2-(4-methyl-1,3-thiazol-2-yl)-4-oxo-1-[(1S)-1-phenylpropyl]-1,4-dihydropyrimidin-5-yl]methyl}-[1,1′-biphenyl]-2-carboxamide], the EC50 was 0.01 to 10 nM.

Turning to `CCCCc1nc(=O)c(Cc2cccc(-c3ccc(F)cc3C(N)=O)c2)c(O)n1[C@@H](CC)c1cc(F)cc(F)c1` [Example 131, 3′-({2-butyl-1-[(1S)-1-(3,5-difluorophenyl)propyl]-6-hydroxy-4-oxo-1,4-dihydropyrimidin-5-yl}methyl)-4-fluoro-[1,1′-biphenyl]-2-carboxamide], the EC50 is 10 to 100 nM.

`CCCCc1nc(=O)c(Cc2ccc(-c3ccnc(F)c3C)cc2)c(O)n1-c1c(CC)cccc1CC` [Example 66, 2-butyl-1-(2,6-diethylphenyl)-5-{[4-(2-fluoro-3-methylpyridin-4-yl)phenyl]methyl}-6-hydroxy-1,4-dihydropyrimidin-4-one]: the EC50 was 0.01 to 10 nM.

Take `CCc1cccc(CC)c1-n1c(-c2ccn(C)n2)nc(=O)c(Cc2ccc(-c3ccnc(F)c3C)c(F)c2)c1O` [Example 71, 1-(2,6-diethylphenyl)-5-{[3-fluoro-4-(2-fluoro-3-methylpyridin-4-yl)phenyl]methyl}-6-hydroxy-2-(1-methyl-1H-pyrazol-3-yl)-1,4-dihydropyrimidin-4-one]: the EC50 lay within 0.01 to 10 nM.

Regarding `COc1cccc(OC)c1-n1c(COC(C)C)nc(O)c(Cc2ccc(-n3cc(F)ccc3=O)cc2)c1=O` [Example 59, 3-(2,6-dimethoxyphenyl)-5-{[4-(5-fluoro-2-oxo-1,2-dihydropyridin-1-yl)phenyl]methyl}-6-hydroxy-2-[(propan-2-yloxy)methyl]-3,4-dihydropyrimidin-4-one], the EC50 is 0.01 to 10 nM.

Consider `CCc1cccc(CC)c1-n1c(-c2nc(C)cs2)nc(=O)c(Cc2ccc(-c3ccc(F)nc3C)c(F)c2)c1O` [Example 79, 1-(2,6-diethylphenyl)-5-{[3-fluoro-4-(6-fluoro-2-methylpyridin-3-yl)phenyl]methyl}-6-hydroxy-2-(4-methyl-1,3-thiazol-2-yl)-1,4-dihydropyrimidin-4-one], for which the EC50 lay within 0.01 to 10 nM.

On to `COc1cccc(OC)c1-n1c(C2CCCC2)nc(O)c(Cc2ccc(-n3cc(F)ccc3=O)cc2)c1=O` [Example 51, 2-cyclopentyl-3-(2,6-dimethoxyphenyl)-5-{[4-(5-fluoro-2-oxo-1,2-dihydropyridin-1-yl)phenyl]methyl}-6-hydroxy-3,4-dihydropyrimidin-4-one], for which the EC50 lay in the range of 0.01 to 10 nM.

As to `CCCCc1nc(=O)c(Cc2ccc(-c3cccnc3C)cc2)c(O)n1[C@@H](CC)c1cccc(F)c1` [Example 105, 2-butyl-1-[(1S)-1-(3-fluorophenyl)propyl]-6-hydroxy-5-{[4-(2-methylpyridin-3-yl)phenyl]methyl}-1,4-dihydropyrimidin-4-one], the EC50 fell in the range of 0.01 to 10 nM.

For `COc1cccc(OC)c1-n1c(COC2CC2)nc(O)c(Cc2ccc(-n3ccccc3=O)cc2)c1=O` [Example 40, 2-(cyclopropoxymethyl)-3-(2,6-dimethoxyphenyl)-6-hydroxy-5-{[4-(2-oxo-1,2-dihydropyridin-1-yl)phenyl]methyl}-3,4-dihydropyrimidin-4-one], the EC50 lay within 0.01 to 10 nM.

Regarding `CCCCc1nc(O)c(Cc2ccc(-c3nc(C)no3)cc2)c(=O)n1-c1c(OC)cccc1OC` [Example 10, 2-butyl-3-(2,6-dimethoxyphenyl)-6-hydroxy-5-{[4-(3-methyl-1,2,4-oxadiazol-5-yl)phenyl]methyl}-3,4-dihydropyrimidin-4-one], the EC50 lay in the range of 0.01 to 10 nM.

On to `CC[C@@H](c1cc(F)cc(F)c1)n1c(COC(C)C)nc(=O)c(Cc2ccc(-c3cccnc3C)cc2)c1O` [Example 111, 1-[(1S)-1-(3,5-difluorophenyl)propyl]-6-hydroxy-5-{[4-(2-methylpyridin-3-yl)phenyl]methyl}-2-[(propan-2-yloxy)methyl]-1,4-dihydropyrimidin-4-one], for which the EC50 was 0.01 to 10 nM.

Turning to `CCCCc1nc(=O)c(Cc2ccc(-n3cc(Cl)ccc3=O)cc2)c(O)n1[C@@H](CC)c1cccc(C#N)c1` [Example 100, 3-[(1S)-1-(2-butyl-5-{[4-(5-chloro-2-oxo-1,2-dihydropyridin-1-yl)phenyl]methyl}-6-hydroxy-4-oxo-1-4-dihydropyrimidin-1-yl)propyl]benzonitrile], the EC50 is 0.01 to 10 nM.

Take `COc1cccc(OC)c1-n1c(CCC2CC2)nc(O)c(Cc2ccc(-n3cc(C)ccc3=O)cc2)c1=O` [Example 55, 2-(2-cyclopropylethyl)-3-(2,6-dimethoxyphenyl)-6-hydroxy-5-{[4-(5-methyl-2-oxo-1,2-dihydropyridin-1-yl)phenyl]methyl}-3,4-dihydropyrimidin-4-one]: the EC50 was 0.01 to 10 nM.

For the compound `Cc1ncccc1-c1ccc(Cc2c(O)n([C@H](c3cc(F)cc(F)c3)C(C)C)c(COC(C)C)nc2=O)cc1` [Example 115, 1-[(1S)-1-(3,5-difluorophenyl)-2-methylpropyl]-6-hydroxy-5-{[4-(2-methylpyridin-3-yl)phenyl]methyl}-2-[(propan-2-yloxy)methyl]-1,4-dihydropyrimidin-4-one], the EC50 is 0.01 to 10 nM.

As for `CC[C@@H](c1cc(F)cc(F)c1)n1c(-c2ccn(CC)n2)nc(=O)c(Cc2ccc(-c3ccc(F)nc3C)cc2)c1O` [Example 134, 1-[(1S)-1-(3,5-difluorophenyl)propyl]-2-(1-ethyl-1H-pyrazol-3-yl)-5-{[4-(6-fluoro-2-methylpyridin-3-yl)phenyl]methyl}-6-hydroxy-1,4-dihydropyrimidin-4-one], the EC50 lay within 0.01 to 10 nM.

On to `CCc1cccc(CC)c1-n1c(-c2ccn(C)n2)nc(=O)c(Cc2ccc(-c3ccc(F)cc3C(N)=O)cc2F)c1O` [Example 89, 4′-{[1-(2,6-diethylphenyl)-6-hydroxy-2-(1-methyl-1H-pyrazol-3-yl)-4-oxo-1,4-dihydropyrimidin-5-yl]methyl}-3′,4-difluoro-[1,1′-biphenyl]-2-carboxamide], for which the EC50 lay within 0.01 to 10 nM.

As to `CCCCc1nc(=O)c(Cc2ccc(-c3ccnc(F)c3C)cc2)c(O)n1[C@@H](CC)c1cccc(F)c1` [Example 103, 2-butyl-5-{[4-(2-fluoro-3-methylpyridin-4-yl)phenyl]methyl}-1-[(1S)-1-(3-fluorophenyl)propyl]-6-hydroxy-1,4-dihydropyrimidin-4-one], the EC50 is 0.01 to 10 nM.

Regarding `CCCCc1nc(O)c(Cc2ccc(-c3csnn3)cc2)c(=O)n1-c1c(OC)cccc1OC` [Example 12, 2-butyl-3-(2,6-dimethoxyphenyl)-6-hydroxy-5-{[4-(1,2,3-thiadiazol-4-yl)phenyl]methyl}-3,4-dihydropyrimidin-4-one], the EC50 fell in the range of 0.01 to 10 nM.

With `CCCCc1nc(O)c(Cc2ccc(-c3cccnc3OC)cc2)c(=O)n1-c1c(OC)cccc1OC` [Example 48, 2-butyl-3-(2,6-dimethoxyphenyl)-6-hydroxy-5-{[4-(2-methoxypyridin-3-yl)phenyl]methyl}-3,4-dihydropyrimidin-4-one], the EC50 was 0.01 to 10 nM.

For `CCc1cccc(CC)c1-n1c(-c2ccn(CC)n2)nc(=O)c(Cc2ccc(-c3ccc(F)nc3C)c(F)c2)c1O` [Example 80, 1-(2,6-diethylphenyl)-2-(1-ethyl-1H-pyrazol-3-yl)-5-{[3-fluoro-4-(6-fluoro-2-methylpyridin-3-yl)phenyl]methyl}-6-hydroxy-1,4-dihydropyrimidin-4-one], the EC50 fell in the range of 0.01 to 10 nM.

For `CCc1cccc(CC)c1-n1c(-c2csc(C)n2)nc(=O)c(Cc2ccc(-c3ccc(F)nc3C)c(F)c2)c1O` [Example 72, 1-(2,6-diethylphenyl)-5-{[3-fluoro-4-(6-fluoro-2-methylpyridin-3-yl)phenyl]methyl}-6-hydroxy-2-(2-methyl-1,3-thiazol-4-yl)-1,4-dihydropyrimidin-4-one], the EC50 is 0.01 to 10 nM.

Turning to `COc1cccc(OC)c1-n1c(CCC2CC2)nc(O)c(Cc2ccc(-n3cc(F)ccc3=O)cc2)c1=O` [Example 56, 2-(2-cyclopropylethyl)-3-(2,6-dimethoxyphenyl)-5-{[4-(5-fluoro-2-oxo-1,2-dihydropyridin-1-yl)phenyl]methyl}-6-hydroxy-3,4-dihydropyrimidin-4-one], the EC50 lay within 0.01 to 10 nM.

With `CC[C@@H](c1cc(F)cc(F)c1)n1c(CCC2CC2)nc(=O)c(Cc2ccc(-c3ccnc(F)c3C)cc2)c1O` [Example 113, 2-(2-cyclopropylethyl)-1-[(1S)-1-(3,5-difluorophenyl)propyl]-5-{[4-(2-fluoro-3-methylpyridin-4-yl)phenyl]methyl}-6-hydroxy-1,4-dihydropyrimidin-4-one], the EC50 lay in the range of 0.01 to 10 nM.

On to `CC[C@@H](c1ccccc1)n1c(-c2nc(C)cs2)nc(=O)c(Cc2ccc(-c3ccnc(F)c3C)c(F)c2)c1O` [Example 118, 5-{[3-fluoro-4-(2-fluoro-3-methylpyridin-4-yl)phenyl]methyl}-6-hydroxy-2-(4-methyl-1,3-thiazol-2-yl)-1-[(1S)-1-phenylpropyl]-1,4-dihydropyrimidin-4-one], for which the EC50 lay in the range of 0.01 to 10 nM.

Values taken from patent US11390616B2 (BRISTOL-MYERS SQUIBB COMPANY, priority 2015, dated 2022).
